Experimental data taken from PubChem BioAssay AID2060509 (Molecular Pharmacology Branch, DTP, NCI, 2025).
Where “and” joins values, the source holds several entries; their conditions need not be identical. Equal values may be shown once.

System: 485176-168-R4-J1-PDC spheroids with HUVEC/MSC, viability
Experiment: Anticancer human tumor 485176-168-R4-J1-PDC patient-derived pancreatic adenocarcinoma cell line growth inhibition [GQUAD]
Conditions: for viability, T/C: stronger effect = lower value
Excerpt: DNA G-quadruplex Stabilizer Agents in Combinations in Complex Spheroids
A high-throughput screen of multi-cell type tumor spheroids was designed to identify active combinations of DNA G-quadruplex stabilizer agents and targeted small molecules. Complex spheroids include a stromal component modeled by human endothelial cells (HUVEC) and fibroblasts modeled by human mesenchymal stem cells (MSCs). The concentration ranges selected for each drug and investigational agent were based upon clinically achievable concentrations if the clinical Cmax of the agent was known.
Compounds. The drugs and investigational agents: pidnarulex (CX-5461; NSC782164), APTO-253 (NSC789042), BRACO-19 (NSC847499), peposertib (NSC802822), ceralasertib (NSC780249), elimusertib (NSC800525), camonsertib (NSC841442), AZD-1390 (NSC803789), olaparib (NSC753686), talazoparib (NSC767125), ART-558 (NSC835418), sotorasib (NSC818433), MRTX-1133 (NSC836407), SN-38 (NSC673596), topotecan (NSC609699), etoposide (NSC141540), doxorubicin (NSC123127), gemcitabine (NSC613327), 5-fluorouracil (NSC19893), paclitaxel (NSC125973), vemurafenib (NSC761431), panobinostat (NSC761190), R-306465 (JNJ-16241199; NSC773264), adavosertib (NSC754352), TP-3654 (NSC805149), carboplatin (NSC241240), KSQ-4279 (NSC840948), and staurosporine (NSC755774) were obtained from the National Cancer Institute (NCI) Developmental Therapeutics Program Chemical Repository (34). The FDA-approved anticancer drug set is available from the NCI Developmental Therapeutics Program. […] The stock solutions were prepared in dimethyl sulfoxide (DMSO, Sigma-Aldrich, St. Louis, MO, cat. D2650) at 800-fold the tested concentration and stored at -70 degrees C prior to their use. All drugs and investigational agents were tested over a range starting from a high concentration at or near the clinical Cmax and decreasing in half-log increments. If the clinical Cmax for an agent had not been determined, the highest concentration tested was 10 microM.
2.3 Cell Culture. All cells were maintained in an incubator at 37 degrees C and 5% CO2 with 95% humidity. The PDC lines were cultured according to standard operating procedures established by the NCI PDMR. All PDCs were thawed and cultured in Matrigel-coated flasks prepared with a working solution of 1X Ham's F-12 nutrient mix, without supplementation (Invitrogen, cat. 11765054), 100 U/mL penicillin-streptomycin (Invitrogen, cat. 15140122), and 2.5% Matrigel (Corning Inc., cat. 354248) for the first three passages. The 857933-349-R-J2-PDC line was cultured in 6C/Colon 1B media, which includes advanced DMEM/F-12 (Thermo Fisher Scientific, cat. 12634028), 10 mM HEPES (Thermo Fisher Scientific, cat. 15630080), 1X GlutaMAX supplement (Thermo Fisher Scientific, cat. 35050061), 0.1 mg/mL primocin (InvivoGen, cat. ant-pm-2), 10% defined fetal bovine serum, heat inactivated (HyClone Laboratories Inc., cat. SH30070.03HI), 50% L-WRN conditioned media (ATCC, cat. CRL-3276), 1.25 mM N-Acetyl-L-cysteine (Sigma-Aldrich, cat. A9165), 10 mM nicotinamide (Sigma-Aldrich, cat. N0636), 1X B-27 supplement (Thermo Fisher Scientific, cat. 17504044), 1X N-2 supplement (Thermo Fisher Scientific, cat. 17502048), 10 microM Y-27632 dihydrochloride (Tocris Bioscience, cat. 1254), and 50 ng/mL human EGF recombinant protein (Thermo Fisher Scientific, cat. PHG0311). The 485176-168-R4-J1-PDC line was cultured in Panc media, which includes all 6C/Colon 1B media components plus 100 ng/mL human FGF-10 (Thermo Fisher Scientific, cat. 100-26), 500 nM SB-431542 (Selleckchem, cat. S1067), and gastrin (Tocris, cat. 3006).
[…]
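Further: spheroids exposed to compounds for seven days before readout.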
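Wherever viability, T/C is given: percent viability relative to DMSO vehicle control wells as 100%.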

SMILES: C=CCn1c(=O)c2cnc(Nc3ccc(N4CCN(C)CC4)cc3)nc2n1-c1cccc(C(C)(C)O)n1
- viability, T/C (compound 0.0316 µM): 101% and 96.5% and 125%
- viability, T/C (compound 0.1 µM): 85.2% and 103% and 79.7%
- viability, T/C (compound 0.316 µM): 58% and 60.3% and 58.8%
- viability, T/C (compound 1 µM): 20.7% and 23% and 14.2%
- viability, T/C (compound 3.16 µM): 7.67% and 7.8% and 5.95%
- viability, T/C (compound 10 µM): 5.42% and 4.01% and 4.35%
- IC50 (curve of compound): 0.387 µM and 0.453 µM and 0.3 µM

SMILES: CC1COCCN1c1cc(C2(S(C)(=N)=O)CC2)nc(-c2ccnc3[nH]ccc23)n1 (centres undefined) + CN(C)c1ccc(Nc2c3ccc(NC(=O)CCN4CCCC4)cc3nc3cc(NC(=O)CCN4CCCC4)ccc23)cc1
- IC50 (curve of first compound, second compound 0.0316 µM): 2.21 µM
- IC50 (curve of first compound, second compound 0.1 µM): 1.87 µM
- IC50 (curve of first compound, second compound 0.316 µM): 2.11 µM
- IC50 (curve of first compound, second compound 1 µM): 2.07 µM
- IC50 (curve of first compound, second compound 3.16 µM): 1.99 µM
- IC50 (curve of first compound, second compound 10 µM): 1.49 µM
- viability, T/C (second compound 0.0316 µM, first compound 0.0316 µM): 92.4%
- viability, T/C (second compound 0.0316 µM, first compound 0.1 µM): 85.2%
- viability, T/C (second compound 0.0316 µM, first compound 0.316 µM): 86.2%
- viability, T/C (second compound 0.0316 µM, first compound 1 µM): 75%
- viability, T/C (second compound 0.0316 µM, first compound 3.16 µM): 38.7%
- viability, T/C (second compound 0.0316 µM, first compound 10 µM): 15.9%
- viability, T/C (second compound 0.1 µM, first compound 0.0316 µM): 100%
- viability, T/C (second compound 0.1 µM, first compound 0.1 µM): 81.9%
- viability, T/C (second compound 0.1 µM, first compound 0.316 µM): 84.6%
- viability, T/C (second compound 0.1 µM, first compound 1 µM): 69.9%
- viability, T/C (second compound 0.1 µM, first compound 3.16 µM): 33.6%
- viability, T/C (second compound 0.1 µM, first compound 10 µM): 17.6%
- viability, T/C (second compound 0.316 µM, first compound 0.0316 µM): 103%
- viability, T/C (second compound 0.316 µM, first compound 0.1 µM): 101%
- viability, T/C (second compound 0.316 µM, first compound 0.316 µM): 97.8%
- viability, T/C (second compound 0.316 µM, first compound 1 µM): 76.3%
- viability, T/C (second compound 0.316 µM, first compound 3.16 µM): 35.7%
- viability, T/C (second compound 0.316 µM, first compound 10 µM): 15.6%
- viability, T/C (second compound 1 µM, first compound 0.0316 µM): 115%
- viability, T/C (second compound 1 µM, first compound 0.1 µM): 85.6%
- viability, T/C (second compound 1 µM, first compound 0.316 µM): 109%
- viability, T/C (second compound 1 µM, first compound 1 µM): 70.2%
- viability, T/C (second compound 1 µM, first compound 3.16 µM): 38.5%
- viability, T/C (second compound 1 µM, first compound 10 µM): 18%
- viability, T/C (second compound 3.16 µM, first compound 0.0316 µM): 90.8%
- viability, T/C (second compound 3.16 µM, first compound 0.1 µM): 99.2%
- viability, T/C (second compound 3.16 µM, first compound 0.316 µM): 97.5%
- viability, T/C (second compound 3.16 µM, first compound 1 µM): 69.1%
- viability, T/C (second compound 3.16 µM, first compound 3.16 µM): 37.1%
- viability, T/C (second compound 3.16 µM, first compound 10 µM): 15.8%
- viability, T/C (second compound 10 µM, first compound 0.0316 µM): 88.2%
- viability, T/C (second compound 10 µM, first compound 0.1 µM): 100%
- viability, T/C (second compound 10 µM, first compound 0.316 µM): 81.2%
- viability, T/C (second compound 10 µM, first compound 1 µM): 59.5%
- viability, T/C (second compound 10 µM, first compound 3.16 µM): 32.8%
- viability, T/C (second compound 10 µM, first compound 10 µM): 20.3%
